Reference: US4272528A, “Phosphonoacetyl aminoacids” (Abbott Laboratories, priority 1980, dated 1981)
Like-named read-outs stand apart in the source and are kept apart here.

Target: herpes DNA polymerase (Human herpesvirus 1, UniProt P04293)
Experiment: herpes DNA polymerase activity assay
Format: biochemical
Conditions: for % Inhibition at Drug Level 1.666 μg/ml / % Inhibition at Drug Level 16.6 μg/ml / % Inhibition at Drug Level 166 μg/ml: fixed dilution
Description: The above compounds were tested for herpes DNA polymerase activity in the manner shown in Example 9 of U.S. Pat. No. 4,138,432. The assay, using fixed dilutions of the above compounds, produced the following results:
When variable solution concentrations were used, the results were as follows: […]

[1] = variable solution concentrations, read-out: ID50 (the source's name) (converted)

Chain of herpes DNA polymerase (P04293 whole entry): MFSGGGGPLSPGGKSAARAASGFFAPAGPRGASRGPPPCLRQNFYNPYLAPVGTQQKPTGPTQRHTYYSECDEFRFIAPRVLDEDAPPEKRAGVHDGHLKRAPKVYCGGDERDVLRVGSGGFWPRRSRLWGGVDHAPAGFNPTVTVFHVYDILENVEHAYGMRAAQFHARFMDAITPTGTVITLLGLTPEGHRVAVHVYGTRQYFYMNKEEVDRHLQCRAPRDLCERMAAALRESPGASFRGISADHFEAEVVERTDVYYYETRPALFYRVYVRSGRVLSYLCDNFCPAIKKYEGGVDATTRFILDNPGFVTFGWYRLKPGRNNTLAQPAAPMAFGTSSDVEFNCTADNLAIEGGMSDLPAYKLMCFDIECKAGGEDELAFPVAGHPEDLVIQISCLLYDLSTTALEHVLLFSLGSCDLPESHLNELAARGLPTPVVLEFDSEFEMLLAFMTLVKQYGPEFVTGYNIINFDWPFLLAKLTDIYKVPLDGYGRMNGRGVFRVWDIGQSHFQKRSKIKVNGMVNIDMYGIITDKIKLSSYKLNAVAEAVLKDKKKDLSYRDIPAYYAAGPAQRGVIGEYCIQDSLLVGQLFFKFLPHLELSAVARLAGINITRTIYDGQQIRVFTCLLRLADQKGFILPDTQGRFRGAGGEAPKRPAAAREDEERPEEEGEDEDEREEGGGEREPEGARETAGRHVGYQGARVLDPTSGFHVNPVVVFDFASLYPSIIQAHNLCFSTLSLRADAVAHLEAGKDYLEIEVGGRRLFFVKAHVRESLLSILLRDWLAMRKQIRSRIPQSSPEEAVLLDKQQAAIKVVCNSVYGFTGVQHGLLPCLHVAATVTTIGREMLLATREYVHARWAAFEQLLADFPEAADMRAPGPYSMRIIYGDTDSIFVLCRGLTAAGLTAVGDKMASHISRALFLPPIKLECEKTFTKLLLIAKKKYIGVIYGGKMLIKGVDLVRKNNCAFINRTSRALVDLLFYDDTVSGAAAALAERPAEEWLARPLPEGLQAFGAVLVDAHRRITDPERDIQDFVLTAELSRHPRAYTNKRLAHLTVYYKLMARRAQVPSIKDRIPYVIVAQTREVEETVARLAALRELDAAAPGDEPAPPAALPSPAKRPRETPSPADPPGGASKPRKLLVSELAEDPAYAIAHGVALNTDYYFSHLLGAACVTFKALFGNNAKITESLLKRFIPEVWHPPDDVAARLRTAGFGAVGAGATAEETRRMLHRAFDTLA

Row | IC50 [1] [µM] | Structure (SMILES) | IC50 [µM] | % Inhibition at Drug Level 1.666 μg/ml [%] | % Inhibition at Drug Level 16.6 μg/ml [%] | % Inhibition at Drug Level 166 μg/ml [%]
1 |  | O=C(O)CNC(=O)CP(=O)(O)O [Example 1, PAA-Gly] | 28.9 | 33 | 56 | 72
2 |  | C[C@@H](NC(=O)CP(=O)(O)O)C(=O)O [Example 2 (D), PAA-D-Ala] | 31.3 | 19 | 68 | 87
3 |  | C[C@H](NC(=O)CP(=O)(O)O)C(=O)O [Example 2 (L), PAA-L-Ala] |  |  |  | 59
4 |  | O=C(O)CCNC(=O)CP(=O)(O)O [Example 3, PAA-β-Ala] | 50.2 | 15 | 59 | 88
5 | 10.6 | O=C(O)CC(NC(=O)CNC(=O)CP(=O)(O)O)C(=O)O (stereo not shown) [Example 4, PAA-Gly-Asp] |  | 39 | 77 | 93
6 | 203 | N=C(N)NCCCC(NC(=O)CP(=O)(O)O)C(=O)O (stereo not shown) [PAA-Arg, reference compound] |  |  |  | 
7 |  | O=C(O)CP(=O)(O)O [PAA-Na, reference compound] |  | 82 | 98 | 99

Row | Structure (SMILES) | IC50 [1] [µM] | IC50 [µM] | % Inhibition at Drug Level 1.666 μg/ml [%] | % Inhibition at Drug Level 16.6 μg/ml [%] | % Inhibition at Drug Level 166 μg/ml [%]
8 | O=C(O)C[C@H](NC(=O)CP(=O)(O)O)C(=O)O [PAA-L-Asp, reference compound] | 141 |  |  |  | 
